Results: patent publication US20250367343A1, “CLINICAL DRESSING LOADED WITH COFFEE EXTRACT” (KING SAUD UNIVERSITY, priority 2024, published 2025)

Tested on: methicillin-resistant Staphylococcus aureus (ATCC 43300)
Test: Standard antibiotic sensitivity test using the Vitek-2 system
Assay type: cell-based
Details: strain ATCC 43300

Compound | antibiotic sensitivity of the MRSA strain
CC1(C)S[C@@H]2[C@H](NC(=O)Cc3ccccc3)C(=O)N2[C@H]1C(=O)O [penicillin G] | resistant
Cc1onc(-c2ccccc2)c1C(=O)N[C@@H]1C(=O)N2[C@@H]1SC(C)(C)[C@@H]2C(=O)O [oxacillin] | resistant
CO[C@@]1(NC(=O)Cc2cccs2)C(=O)N2C(C(=O)O)=C(COC(N)=O)CS[C@@H]21 [cefoxitin] | resistant
CC1(C)S[C@@H]2[C@H](NC(=O)[C@H](N)c3ccccc3)C(=O)N2[C@H]1C(=O)O [ampicillin] | resistant
amoxicillin-alavulanate | resistant
